{"source": "patent US5958938A", "about": "“Bis-pyrido[4,3-b]carbazole compounds” (Adir et Compagnie, priority 1997, dated 1999)", "key": {"[1]": {"system": "P 388 (murine leukaemia)", "experiment": "In vivo anti-tumor activity, P 388 i.p.", "design": "species or system female BDF1 mice", "details": "for Long-term survivors/total no. of mice: survivors at 60 days", "description": "Line P 388 (murine leukaemia) is supplied by The National Cancer Institute (Frederick, USA). The tumor cells (10^6 cells) are inoculated on day 0 into the peritoneal cavity of female BDF1 mice (Iffa-Credo, France) weighing from 18 to 20 g (groups of 6 or 7 animals).\nThe products are administered intravenously on day 1 or on days 1, 5 and 9 at the doses indicated.\nThe anti-tumor activity is expressed as % T/C: [formula]\nThe animals surviving at 60 days (long-term survivors) are indicated."}, "[2]": {"system": "B 16 (murine melanoma)", "experiment": "In vivo anti-tumor activity, B 16 i.p.", "design": "species or system BDF1 mouse", "details": "for % T/C / Long-term survivors/total no. of mice: D1-9, i.p.; for Long-term survivors/total no. of mice: survivors at 90 days", "description": "Line B 16 (murine melanoma) is supplied by The National Cancer Institute (Frederick, USA). The tumor is maintained by successive subcutaneous grafts of tumor fragments. On day 0, the tumors are broken up and homogenised in 0.9% NaCl (1 g, of tumor in 10 ml) and 0.5 ml of the homogenate is injected into the peritoneal cavity of each BDF1 mouse. The products are administered intraperitoneally at the doses indicated once a day for 9 days (D1-9).\nThe anti-tumor activity is expressed as % T/C, as defined above. The animals surviving at 90 days (long-term survivors) are indicated."}, "[3]": {"system": "murine melanoma, B 16", "experiment": "Cytotoxicity, Microculture Tetrazolium Assay, B 16", "type": "cell-based", "details": "for IC50: Mus musculus, read-out: IC50 (cytotoxicity)", "source_text": "(§1) Three cell lines were used:\n(§2) The cells are distributed on microplates and exposed to the cytotoxic compounds."}, "[4]": {"system": "murine leukaemia, L 1210", "experiment": "Cytotoxicity, Microculture Tetrazolium Assay, L 1210", "type": "cell-based", "details": "Mus musculus, L1210, 48 h, read-out: IC50 (cytotoxicity)", "source_text": "as §1, §2"}, "[5]": {"system": "human pulmonary carcinoma, A 549", "experiment": "Cytotoxicity, Microculture Tetrazolium Assay, A 549", "type": "cell-based", "details": "for IC50: Homo sapiens, A549, 96 h, read-out: IC50 (cytotoxicity)", "source_text": "as §1, §2"}, "[6]": {"details": "D1,5,9, i.v., optimum dose 10 mg/kg"}, "[7]": {"details": "D1, i.v., optimum dose 10 mg/kg"}, "[8]": {"details": "B16, 96 h, B 16, 4 days incubation"}, "[9]": {"details": "D1,5,9, i.v., optimum dose 80 mg/kg"}, "[10]": {"details": "D1, i.v., optimum dose 80 mg/kg"}}, "note": "Like-named read-outs stand apart in the source and are kept apart here.", "data": [{"compound": "Cc1c2c(C(=O)NCCN(C)C)nccc2c(C)c2c1c1cc(OC(=O)CCCCC(=O)Oc3ccc4c(c3)c3c(C)c5c(C(=O)NCCN(C)C)nccc5c(C)c3n4C)ccc1n2C", "note": "[Example 1, bis[1-(2-dimethylaminoethylcarbamoyl)-5,6, 11-trimethyl-6H-pyrido[4,3-b]carbazol-9-yl] ester of hexanedloic acid]", "values": [{"measurement": "% T/C", "setting": "[1]; [6]", "result": "> 582", "unit": "%"}, {"measurement": "Long-term survivors/total no. of mice", "setting": "[1]; [6]", "result": "3/6"}, {"measurement": "% T/C", "setting": "[1]; [7]", "result": 252, "unit": "%"}, {"measurement": "Long-term survivors/total no. of mice", "setting": "[1]; [7]", "result": "1/6"}, {"measurement": "Anti-tumor activity compared with reference product A", "setting": "[1]; leukaemia P 388 model, in words", "result": "more potent than, and as active as, reference product A"}, {"measurement": "% T/C", "setting": "[2]; optimum dose 5 mg/kg", "result": 429, "unit": "%"}, {"measurement": "Long-term survivors/total no. of mice", "setting": "[2]; optimum dose 5 mg/kg", "result": "3/7"}, {"measurement": "Long-term survivors", "setting": "[2]; melanoma B 16 model, at the optimum dose", "result": 3, "unit": "long-term survivors"}, {"measurement": "Anti-tumor activity", "setting": "[2]; melanoma B 16 model, in words", "result": "very active"}, {"measurement": "Cytotoxicity compared with reference products A and B", "setting": "[3]; B 16, in words", "result": "more cytotoxic than reference products A and B"}, {"measurement": "Cytotoxicity compared with line L 1210", "setting": "[3]; B 16 versus L 1210, in words", "result": "greater for lines B 16 and A 549 than for line L 1210"}, {"measurement": "IC50", "setting": "[3]; [8]", "result": 3, "unit": "nM"}, {"measurement": "IC50", "setting": "[4]; L 1210, 2 days incubation", "result": 73.5, "unit": "nM"}, {"measurement": "Cytotoxicity compared with reference products A and B", "setting": "[5]; A 549, in words", "result": "more cytotoxic than reference products A and B"}, {"measurement": "Cytotoxicity compared with line L 1210", "setting": "[5]; A 549 versus L 1210, in words", "result": "greater for lines B 16 and A 549 than for line L 1210"}, {"measurement": "IC50", "setting": "[5]; A 549, 4 days incubation", "result": 17.6, "unit": "nM"}]}, {"compound": "Cc1c2ccnc(C(=O)NCCN(C)C)c2cc2c3cc(O)ccc3n(C)c12", "note": "[Reference A, 1-(N,N-dimethylaminoethylaminocarbamoyl)-5,6-diiethyl-9-hydroxy-6H-pyrido-[4,3-b]carbazole, reference compound]", "values": [{"measurement": "% T/C", "setting": "[1]; [9]", "result": 320, "unit": "%"}, {"measurement": "Long-term survivors/total no. of mice", "setting": "[1]; [9]", "result": "2/6"}, {"measurement": "% T/C", "setting": "[1]; [10]", "result": 221, "unit": "%"}, {"measurement": "Long-term survivors/total no. of mice", "setting": "[1]; [10]", "result": "0/6"}, {"measurement": "% T/C", "setting": "[2]; optimum dose 10 mg/kg", "result": 190, "unit": "%"}, {"measurement": "Long-term survivors/total no. of mice", "setting": "[2]; optimum dose 10 mg/kg", "result": "0/7"}, {"measurement": "Long-term survivors", "setting": "[2]; melanoma B 16 model, in words", "result": "none"}, {"measurement": "IC50", "setting": "[3]; [8]", "result": 5.1, "unit": "nM"}, {"measurement": "IC50", "setting": "[4]; L 1210, 2 days incubation", "result": 7.8, "unit": "nM"}, {"measurement": "IC50", "setting": "[5]; A 549, 4 days incubation", "result": 30.5, "unit": "nM"}]}, {"compound": "COc1cccc2c1C(=O)c1c(O)c3c(c(O)c1C2=O)C[C@@](O)(C(=O)CO)C[C@@H]3O[C@H]1C[C@H](N)[C@H](O)[C@H](C)O1", "note": "[Reference B, adriamycin, reference compound]", "values": [{"measurement": "IC50", "setting": "[3]; 96 h", "result": 6.8, "unit": "nM"}, {"measurement": "IC50", "setting": "[4]", "result": 24.3, "unit": "nM"}, {"measurement": "IC50", "setting": "[5]", "result": 39.4, "unit": "nM"}]}]}
